Laboratory results: patent US12156880B2, “Heterocyclic RIP1 kinase inhibitors” (Rigel Pharmaceuticals, Inc., priority 2021, dated 2024)
Read-outs that look alike come from different tables or passages of the source.

What was measured:
RIPK1 = biological target: T1, RIPK1 (Homo sapiens, UniProt Q13546); experiment: RIPK1 ADP-Glo biochemical kinase assay
T1 sequence (Q13546 1-671): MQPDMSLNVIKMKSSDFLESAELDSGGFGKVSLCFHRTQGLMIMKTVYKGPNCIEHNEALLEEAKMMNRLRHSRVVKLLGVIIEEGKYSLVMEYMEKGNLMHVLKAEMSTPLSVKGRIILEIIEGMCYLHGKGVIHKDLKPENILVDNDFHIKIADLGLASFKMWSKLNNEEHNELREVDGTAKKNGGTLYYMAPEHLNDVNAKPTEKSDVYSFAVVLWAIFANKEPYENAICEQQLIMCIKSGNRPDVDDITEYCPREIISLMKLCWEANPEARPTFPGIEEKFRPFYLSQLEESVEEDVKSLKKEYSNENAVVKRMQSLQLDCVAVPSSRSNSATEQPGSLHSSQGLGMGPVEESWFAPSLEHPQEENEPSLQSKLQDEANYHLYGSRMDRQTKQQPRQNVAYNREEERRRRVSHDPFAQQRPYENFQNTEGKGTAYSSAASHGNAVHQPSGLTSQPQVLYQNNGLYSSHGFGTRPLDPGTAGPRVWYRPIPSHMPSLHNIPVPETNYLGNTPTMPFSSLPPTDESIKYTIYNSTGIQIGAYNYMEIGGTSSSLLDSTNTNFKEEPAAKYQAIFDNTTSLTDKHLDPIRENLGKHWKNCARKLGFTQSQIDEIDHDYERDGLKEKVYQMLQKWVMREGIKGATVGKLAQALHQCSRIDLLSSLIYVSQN
Summary of the method: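 RIPK1 at 31 ng/well in Tris pH 7.4 buffer with MgCl2, BSA, DTT and MnCl2, reacted with compounds (duplicate) for 30 min at 30 °C. ADP formed detected by ADP-Glo: 40 min stop/depletion, then 30 min detection reagent at room temperature; luminescence read.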

L929 cells = experiment: L929 cell necroptosis assay (TNFa + zVAD, CellTiter-Glo recovery); format: cell-based, murine; conditions: Mus musculus, L929, 18 h, TNFa 2 ng/mL + zVAD-fmk, read-out: L929-CTG-recovery, L929, TNFa + zVAD (IC50)
Description: In this example, U937 and L929 cells were exposed to compounds of the present disclosure and a cell necroptosis assay was conducted to evaluate the compounds' activity against human RIP1 and murine RIP1.
U937 and L929 cells were obtained from the American Type Culture Collection (Manassas, VA, USA). Both cells were maintained in logarithmic growth phase in complete RPMI 1640 media (Sigma, ST Louis, MO, USA) supplemented with 10% fetal bovine serum (Sigma, ST Louis, MO, USA) at 37° C. with 5% CO2. For necroptosis assay, L929 cells were plated for 18 h in 100 μL/well medium at 10K cells/well in Costar 96-well black clear-bottom plates (Fisher Scientific, Hampton, NH, USA); U937 cells were plated on the day of the assay in 50 μL/well medium containing 60 uM zVAD-fmk (Lonza, Basel, Switzerland) at 50K cells/well. Medium from L929 cells were removed from the 96-well plates and replaced with 50 μL/well new medium containing 40 uM zVAD-fmk. Each compound of the present disclosure evaluated in this example was serially diluted in DMSO from 2.5 mM in 4-fold dilutions, and then diluted 1:125 in complete medium. 50 μL/well 2× of the compound was then added to the cells in the plates. The cells were pre-incubated with the compound for 1 hour at 37° C. with 5% CO2 and before addition of 10 μL/well 11×TNFa (Peprotech, Rocky Hill, NJ, USA) to give a final concentration of 2 ng/mL for TNFa. The relative amount of necroptosis cells was determined by luminescent using a Wallac Victor2 Luminometer (PerkinElmer, Waltham, MA, USA) and a CellTiter-Glo® Luminescent Cell Viability Reagent Assay (Promega, Madison, WI, USA) added per manufacturer instructions after 18 hours of TNFa stimulation at 37° C. with 5% CO2. This example establishes that embodiments of the compounds described herein have unexpectedly potent activity against human RIP1 and murine RIP1, which allows their assessment in in vivo mouse models of disease.

U937 cells = experiment: U937 cell necroptosis assay (TNFa + zVAD, CellTiter-Glo recovery); format: cell-based; conditions: Homo sapiens, U-937, 18 h, TNFa 2 ng/mL + zVAD-fmk, read-out: U937 Zvad TNF CTG Recovery, U937, TNFa + zVAD (IC50)
Summary of the method: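 Human U937 (50K/well, 60 uM zVAD-fmk medium, plated same day) or murine L929 (10K/well, plated 18 h, then 40 uM zVAD-fmk medium) were grown in RPMI with 10% FBS. Both were pretreated with compound for 1 h at 37 °C before TNFa at 2 ng/mL final. Viability was read by CellTiter-Glo luminescence after 18 h.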

[1] = read-out: RIPK1 ADP-Glo Kinase (IC50)

CN1C(=O)[C@@H](NC(=O)n2cc(Cc3cccc(F)n3)cn2)CCc2ccc(C#CC3(O)CCC3)cc21 [I-117, (S)-4-((6-Fluoropyridin-2-yl)methyl)-N-(8-((1-hydroxycyclobutyl)ethynyl)-1-methyl-2-oxo-2,3,4,5-tetrahydro-1H-benzo[b]azepin-3-yl)-1H-pyrazole-1-carboxamide]
IC50 (RIPK1): 0.0123 µM | IC50 (L929 cells): 0.0131 µM | IC50 (U937 cells): 0.0012 µM

CN1C(=O)[C@@H](NC(=O)c2cc(Cc3cccc(C#N)n3)ccn2)COc2ccc(C#CC(C)(C)O)cc21 [I-93, (S)-4-((6-cyanopyridin-2-yl)methyl)-N-(7-(3-hydroxy-3-methylbut-1-yn-1-yl)-5-methyl-4-oxo-2,3,4,5-tetrahydrobenzo[b][1,4]oxazepin-3-yl)picolinamide]
IC50 (RIPK1; [1]): 0.0299 µM | IC50 (L929 cells): 5.67 µM | IC50 (U937 cells): 0.0522 µM

Cc1ccc(Oc2ccnc(C(=O)N[C@H]3COc4ccc(C#CC(C)(C)O)cc4N(C)C3=O)c2)cn1 [I-4, (S)—N-(7-(3-hydroxy-3-methylbut-1-yn-1-yl)-5-methyl-4-oxo-2,3,4,5-tetrahydrobenzo[b][1,4]oxazepin-3-yl)-4-((6-methylpyridin-3-yl)oxy)picolinamide]
IC50 (RIPK1; [1]): 0.0553 µM | IC50 (L929 cells): 7.06 µM | IC50 (U937 cells): 0.361 µM

Cc1nc(Cc2ccnc(C(=O)N[C@H]3COc4ccc(C#CC(C)(C)C)cc4N(C)C3=O)c2)cs1 [I-96, (S)—N-(7-(3,3-dimethylbut-1-yn-1-yl)-5-methyl-4-oxo-2,3,4,5-tetrahydrobenzo[b][1,4]oxazepin-3-yl)-4-((2-methylthiazol-4-yl)methyl)picolinamide]
IC50 (RIPK1; [1]): 0.396 µM | IC50 (L929 cells): 0.242 µM | IC50 (U937 cells): 0.0842 µM

Cc1nc(Cc2ccnc(C(=O)N[C@H]3COc4ccc(C#CC5COC5)cc4N(C)C3=O)c2)cs1 [I-85, (S)—N-(5-methyl-7-(oxetan-3-ylethynyl)-4-oxo-2,3,4,5-tetrahydrobenzo[b][1,4]oxazepin-3-yl)-4-((2-methylthiazol-4-yl)methyl)picolinamide]
IC50 (RIPK1; [1]): 0.0206 µM | IC50 (L929 cells): 0.252 µM | IC50 (U937 cells): 0.0158 µM

CN1C(=O)[C@@H](NC(=O)n2cc(Cc3cccnc3F)cn2)COc2ccc(C#CC3(O)CCC3)cc21 [I-48, (S)-4-((2-Fluoropyridin-3-yl)methyl)-N-(7-((1-hydroxycyclobutyl)ethynyl)-5-methyl-4-oxo-2,3,4,5-tetrahydrobenzo[b][1,4]oxazepin-3-yl)-1H-pyrazole-1-carboxamide]
IC50 (RIPK1; [1]): 0.645 µM | IC50 (L929 cells): 1.47 µM | IC50 (U937 cells): 0.0249 µM

CN1C(=O)[C@@H](NC(=O)n2cc(Cc3cccc(F)n3)cn2)COc2ccc(C#CC3(O)CCOCC3)cc21 [I-33, (S)-4-((6-Fluoropyridin-2-yl)methyl)-N-(7-((4-hydroxytetrahydro-2H-pyran-4-yl)ethynyl)-5-methyl-4-oxo-2,3,4,5-tetrahydrobenzo[b][1,4]oxazepin-3-yl)-1H-pyrazole-1-carboxamide]
IC50 (RIPK1; [1]): 0.0171 µM | IC50 (L929 cells): 1.13 µM | IC50 (U937 cells): 0.0116 µM

Cc1cccc(Oc2ccnc(C(=O)N[C@H]3COc4ccc(C#CC5(O)COC5)cc4N(C)C3=O)c2)n1 [I-131, (S)—N-(7-((3-hydroxyoxetan-3-yl)ethynyl)-5-methyl-4-oxo-2,3,4,5-tetrahydrobenzo[b][1,4]oxazepin-3-yl)-4-((6-methylpyridin-2-yl)oxy)picolinamide]
IC50 (RIPK1; [1]): 0.0245 µM | IC50 (L929 cells): 2.67 µM | IC50 (U937 cells): 0.263 µM

CN1C(=O)[C@@H](NC(=O)c2cc(Cc3cccnc3)ccn2)COc2ccc(C#CC3(O)COC3)cc21 [I-62, (S)—N-(7-((3-hydroxyoxetan-3-yl)ethynyl)-5-methyl-4-oxo-2,3,4,5-tetrahydrobenzo[b][1,4]oxazepin-3-yl)-4-(pyridin-3-ylmethyl)picolinamide]
IC50 (RIPK1; [1]): 0.0215 µM | IC50 (L929 cells): 1.37 µM | IC50 (U937 cells): 0.0109 µM

CN1C(=O)[C@@H](NC(=O)c2cc(Oc3cccnc3)ccn2)COc2ccc(C#CC3(O)COC3)cc21 [I-57, (S)—N-(7-((3-hydroxyoxetan-3-yl)ethynyl)-5-methyl-4-oxo-2,3,4,5-tetrahydrobenzo[b][1,4]oxazepin-3-yl)-4-(pyridin-3-yloxy)picolinamide]
IC50 (RIPK1; [1]): 0.0181 µM | IC50 (L929 cells): 0.437 µM | IC50 (U937 cells): 0.0016 µM

Cc1nc(Cc2ccnc(C(=O)N[C@H]3COc4ccc(C#CC(C)(C)O)cc4N(C)C3=O)c2)cs1 [I-65, (S)—N-(7-(3-hydroxy-3-methylbut-1-yn-1-yl)-5-methyl-4-oxo-2,3,4,5-tetrahydrobenzo[b][1,4]oxazepin-3-yl)-4-((2-methylthiazol-4-yl)methyl)picolinamide]
IC50 (RIPK1; [1]): 0.0181 µM | IC50 (L929 cells): 0.0763 µM | IC50 (U937 cells): 0.0434 µM

CN1C(=O)[C@@H](NC(=O)c2cc(Cc3cccc(F)n3)ccn2)COc2ccc(C#CC3CCOCC3)cc21 [I-53, (S)-4-((6-fluoropyridin-2-yl)methyl)-N-(5-methyl-4-oxo-7-((tetrahydro-2H-pyran-4-yl)ethynyl)-2,3,4,5-tetrahydrobenzo[b][1,4]oxazepin-3-yl)picolinamide]
IC50 (RIPK1; [1]): 0.0351 µM | IC50 (L929 cells): 0.114 µM | IC50 (U937 cells): 0.003 µM

CN1C(=O)[C@@H](NC(=O)n2cc(Cc3cccc(F)n3)cn2)COc2ccc(C#CC(O)C(F)(F)F)cc21 (mixture of isomers) [I-105, (±)-4-((6-Fluoropyridin-2-yl)methyl)-N-((3S)-5-methyl-4-oxo-7-(4,4,4-trifluoro-3-hydroxybut-1-yn-1-yl)-2,3,4,5-tetrahydrobenzo[b][1,4]oxazepin-3-yl)-1H-pyrazole-1-carboxamide]
IC50 (RIPK1; [1]): 0.0168 µM | IC50 (L929 cells): 1.54 µM | IC50 (U937 cells): 0.0086 µM

Cc1ncccc1Oc1ccnc(C(=O)N[C@H]2COc3ccc(C#CC(C)(C)O)cc3N(C)C2=O)c1 [I-74, (S)—N-(7-(3-hydroxy-3-methylbut-1-yn-1-yl)-5-methyl-4-oxo-2,3,4,5-tetrahydrobenzo[b][1,4]oxazepin-3-yl)-4-((2-methylpyridin-3-yl)oxy)picolinamide]
IC50 (RIPK1; [1]): 0.0359 µM | IC50 (L929 cells): 3.52 µM | IC50 (U937 cells): 0.126 µM

CN1C(=O)[C@@H](NC(=O)c2cc(Cc3cccnc3F)ccn2)COc2ccc(C#CC3COC3)cc21 [I-52, (S)-4-((2-fluoropyridin-3-yl)methyl)-N-(5-methyl-7-(oxetan-3-ylethynyl)-4-oxo-2,3,4,5-tetrahydrobenzo[b][1,4]oxazepin-3-yl)picolinamide]
IC50 (RIPK1; [1]): 0.0165 µM | IC50 (L929 cells): 0.657 µM | IC50 (U937 cells): 0.0022 µM

CN1C(=O)[C@@H](NC(=O)n2cc(Cc3cccnc3F)cn2)COc2ccc(C#CC3(O)CCOCC3)cc21 [I-44, (S)-4-((2-Fluoropyridin-3-yl)methyl)-N-(7-((4-hydroxytetrahydro-2H-pyran-4-yl)ethynyl)-5-methyl-4-oxo-2,3,4,5-tetrahydrobenzo[b][1,4]oxazepin-3-yl)-1H-pyrazole-1-carboxamide]
IC50 (RIPK1; [1]): 0.0629 µM | IC50 (L929 cells): 4.12 µM | IC50 (U937 cells): 0.018 µM
